Where a SMILES comes first, the peptide text is derived from it. Where no end group is shown, it is not given here. The star is where a group is joined. Doxorubicin(3'-N) = COc1cccc2c1C(=O)c1c(O)c3c(c(O)c1C2=O)C[C@@](O)(C(=O)CO)C[C@@H]3O[C@H]1C[C@H](N*)[C@H](O)[C@H](C)O1
Assays:
Format in all cases: cell-based, human
[1] = test system: KATO III gastric cancer cells; assay: WST-8 cytotoxicity assay, tumor cells; conditions: 24 h, WST-8, highest concentration (5 µM), triplicate
Method: Three cell lines were cultured in 50 mL sterile falcon tissue culture flasks. These included the FGFR2-expressing KATO III gastric cancer cell line (ATCC HTB-103), human colon cancer-associated tumor fibroblasts (HC-6231, Cell Biologics), and primary lung fibroblasts (normal) as control (ATCC-PCS-201-013). Both lines of fibroblasts were grown in Fibroblast Growth Media, and KATO III cells were cultured in Iscove’s Modified Dulbecco’s Medium (IMDM). All growth media were supplement with 10% fetal bovine serum (ATCC), 3 mL of 1X antibiotic-antimycotic mixture per 500 mL medium (GIBCO), 10 units/mL penicillin and 10 μg/mL streptomycin (GIBCO). Each cell line was incubated at 37 °C in a 5% CO2 incubator. Cells were grown to confluence, and the medium was changed every 2 to 3 days. Confluent cells were split twice a week.
Cells were plated in 96-well plates at a density of 1 × 10^4 cells/well. WST-8 assays (Cayman Chemicals, Ann Arbor, MI, USA) were conducted in triplicate for non-cancer primary fibroblasts, as well as for KATO III cells, following manufacturer instructions from the assay kit. […] Following incubation with WST-8 reagent according to manufacturer instructions, absorbance at 450 nm was measured using a Biotek microplate reader. The absorbance of DOX in media was subtracted.
To quantify the effects of the cytotoxicity of the peptides and the DOX conjugates, we conducted WST-8 assays. […]

[2] = test system: co-cultured spheroids of KATO (III) cells and colon tumor-associated fibroblasts (CAFs); assay: Permeation into 3D co-cultured spheroids (fluorescence imaging); conditions: for Permeation of DOX conjugates and neat DOX into spheroids / Permeation of carboxyfluorescein-tagged peptides into spheroids: 1 µM, spheroids grown 6 days at 2000 cells/well, fluorescence imaging; for Permeation of DOX conjugates and neat DOX into spheroids: inherent DOX fluorescence; for Penetration depth from Image J plot profiles of fluorescence intensity, periphery to center: semi-quantitative mean normalized intensity, mean from 3 spheroids; for Permeation of carboxyfluorescein-tagged peptides into spheroids: 24 h incubation
Method: To mimic the tumor microenvironment, 3D cultures of tumor cells (spheroids) were grown. For growing spheroids, co-cultures of human colon-associated tumor fibroblasts and KATO III gastric cancer cells were grown in a 1:3 ratio in a growth media containing IMDM and fibroblast growth medium. Spheroids grown at 2000 cells/well and 4000 cells/well were co-cultured in Nunclon Sphera nonadherent 12-well plates and allowed to grow over a period of two weeks. The growth of the spheroids was monitored using optical microscopy. Media was cautiously removed every two days, and replaced with new medium.
The co-cultured spheroids were grown at a density of 2000 cells/well for six days prior to treatment with the peptides or the peptide–drug conjugates. To visualize the internalization of the peptides, those were first tagged with fluorescein to allow for visualization through fluorescence microscopy. For tagging, each peptide was tagged with NHS-Fluorescein (5/6-carboxyfluorescein succinimidyl ester to allow for binding with the amine group of the peptides). To each peptide solution (10 µM), 1 µM of the dye solution was added and allowed to shake in the dark for 24 h. The solutions were then centrifuged and washed with deionized water twice to remove any unbound dye. Then, peptide solutions were vortexed and allowed to incubate with the spheroids. For the drug conjugates, no tagging was done, due to inherent fluorescence of DOX. In general, 1 µM solutions of the peptides or drug conjugates were used. The spheroids were then visualized using fluorescent microscopy using an inverted Amscope IN480TC-20MB13 microscope at various magnifications.
To visualize the internalization of the peptides and the peptide–drug conjugates in the spheroids, we conducted fluorescence microscopy using an Amscope Inverted Phase-Contrast Fluorescence Microscope. Samples were imaged at various magnifications.
It is well known that constrained interstitial penetration may impede the diffusion of drugs into tumors, thus affecting efficacy. […] Their entry within the spheroids was examined through fluorescence imaging. In the case of the conjugates, because DOX is inherently fluorescent, fluorescence images were taken without tagging. […] The plot profiles obtained from the edge of the spheroid to the center were measured. On average, five measurements were carried out for images of each of the spheroids that were incubated with DOX-conjugated peptides, as well as with neat DOX. The fluoresence intensity from the periphery to the center of the spheroid was measured.

[3] = test system: KATO (III) tumor cells; assay: Phase contrast imaging of cell morphology after treatment; conditions: 1 µM, 24 h, phase contrast microscopy
Method: Cells were plated in 96-well plates at a density of 1 × 10^4 cells/well. WST-8 assays (Cayman Chemicals, Ann Arbor, MI, USA) were conducted in triplicate for non-cancer primary fibroblasts, as well as for KATO III cells, following manufacturer instructions from the assay kit. In general, varying concentrations of the peptides and the DOX conjugates were utilized. The concentrations used were 0.1 µM, 0.5 µM, 1 µM, 2 µM and 5 µM. Neat DOX (1 µM, 2 µM) was also compared. The peptides or drug conjugates or DOX were allowed to incubate with cells for 24 h, and imaged using a phase contrast optical microscope before analysis. Following incubation with WST-8 reagent according to manufacturer instructions, absorbance at 450 nm was measured using a Biotek microplate reader. The absorbance of DOX in media was subtracted.
To investigate the impact of the peptides and the peptide–DOX conjugates on KATO (III) tumor cells, we conducted cytotoxicity studies.

| Compound | Cell viability [1] [%] | Permeation of DOX conjugates and neat DOX into spheroids [2] | Penetration depth from Image J plot profiles of fluorescence intensity, periphery to center [2] | Cell morphology after treatment [3] | Permeation of carboxyfluorescein-tagged peptides into spheroids [2] |
| --- | --- | --- | --- | --- | --- |
| COc1cccc2c1C(=O)c1c(O)c3c(c(O)c1C2=O)C[C@@](O)(C(=O)CO)C[C@@H]3O[C@H]1C[C@H](NC(=O)CNC(=O)[C@H](C)NC(=O)[C@H](CO)NC(=O)[C@H](CS)NC(=O)[C@H](C)N)[C@H](O)[C@H](C)O1 [A-pep-DOX] (H-ACSAG-{Doxorubicin(3'-N)}; N-terminus assumed) | 9 | higher fluorescence | penetrate deeper | appeared to bleb and burst |  |
| COc1cccc2c1C(=O)c1c(O)c3c(c(O)c1C2=O)C[C@@](O)(C(=O)CO)C[C@@H]3O[C@H]1C[C@H](N)[C@H](O)[C@H](C)O1 [DOX, Doxorubicin, reference compound] |  | marginal internalization |  |  |  |
| COc1cccc2c1C(=O)c1c(O)c3c(c(O)c1C2=O)C[C@@](O)(C(=O)CO)C[C@@H]3O[C@H]1C[C@H](NC(=O)CC[C@H](NC(=O)[C@@H]2CCCN2C(=O)[C@@H](NC(=O)[C@H](CC(C)C)NC(=O)[C@@H](NC(=O)[C@H](Cc2c[nH]cn2)NC(=O)[C@@H]2CCCN2C(=O)[C@@H](N)CC(C)C)C(C)C)[C@@H](C)O)C(=O)N[C@@H](C)C(=O)NCC(=O)N[C@@H](C)C(=O)N[C@H](C(=O)N[C@H]2C[C@H](O[C@H]3C[C@](O)(C(=O)CO)Cc4c(O)c5c(c(O)c43)C(=O)c3c(OC)cccc3C5=O)O[C@@H](C)[C@H]2O)[C@@H](C)O)[C@H](O)[C@H](C)O1 [L-pep-(DOX)2] | 7 | comparatively lower intensity of fluorescence |  |  |  |
| CC(C)C[C@H](NC(=O)[C@@H](NC(=O)[C@H](Cc1c[nH]cn1)NC(=O)[C@@H]1CCCN1C(=O)[C@@H](N)CC(C)C)C(C)C)C(=O)N[C@H](C(=O)N1CCC[C@H]1C(=O)N[C@@H](CCC(=O)O)C(=O)N[C@@H](C)C(=O)NCC(=O)N[C@@H](C)C(=O)N[C@H](C(=O)O)[C@@H](C)O)[C@@H](C)O [L-pep] |  |  |  | appeared spherical | relatively higher fluorescence was observed in the outlayers compared to the core |
| ACSAG [A-pep] |  |  |  | loss of morphology and adhesive properties | higher internalization |
| ACSAGLPHVLTPEAGATGASCA-(DOX)2 [Trimer-pep-(DOX)2] |  | relatively higher penetration | penetrate deeper |  |  |

From paper PMC11429203, “Developing New Peptides and Peptide–Drug Conjugates for Targeting the FGFR2 Receptor-Expressing Tumor Cells and 3D Spheroids” (Biomimetics, 2024)
